Results taken from ChEMBL document CHEMBL1201862, “PubChem BioAssay data set” (2004).
Several values for one entry are separate records, joined by “and”; a condition that tells them apart may be missing. Equal entries are not always repeated.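 Exposure lasted 48 hours, with cells grown in 96-well plates and compounds tested at five concentrations. GI50: concentration for 50% inhibition of growth.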 Activity calls are given as the source filed them. Rule as the data show it: active = GI50 up to about 1.1 µM and inactive = higher.

Columns and labels:
Test in all cases: NCI-60 cell line screen, 48 h
OVCAR-5 = tested on: OVCAR-5
NCI-H23 = tested on: NCI-H23
PC-3 = tested on: PC-3
A549 = tested on: A549
RXF 393 = tested on: RXF 393
SF-295 = tested on: SF-295
OVCAR-4 = tested on: OVCAR-4
MDA-MB-231 = tested on: MDA-MB-231
EKVX = tested on: EKVX
T47D = tested on: T47D
SK-MEL-2 = tested on: SK-MEL-2
NCI-H522 = tested on: NCI-H522
UACC-257 = tested on: UACC-257
UO-31 = tested on: UO-31
Hs-578T = tested on: Hs-578T
HCT-116 = tested on: HCT-116
HCC 2998 = tested on: HCC 2998
DU-145 = tested on: DU-145
SNB-19 = tested on: SNB-19
MOLT-4 = tested on: MOLT-4

Measured: GI50

CCOc1ccc(NC(=O)C(=O)C2C(=O)Nc3ccccc3[S+]2[O-])cc1 (configuration not stated)
inactive: OVCAR-5 > 100 µM | NCI-H23 > 100 µM | PC-3 > 100 µM | A549 > 100 µM | RXF 393 > 100 µM | SF-295 > 100 µM | OVCAR-4 89.7 µM | MDA-MB-231 > 100 µM | EKVX 85.9 µM | T47D > 100 µM | SK-MEL-2 > 100 µM | NCI-H522 > 100 µM | UACC-257 > 100 µM | UO-31 > 100 µM | Hs-578T > 100 µM | HCT-116 > 100 µM

CC(=O)OC1COC(n2c(N)c(C#N)c(C)c(C#N)c2=S)C(OC(C)=O)C1OC(C)=O (configuration not stated)
inactive: OVCAR-5 > 100 µM | NCI-H23 > 100 µM | PC-3 76.7 µM | A549 > 100 µM | SF-295 > 100 µM | MDA-MB-231 > 100 µM | T47D 55.3 µM and 58.3 µM | NCI-H522 > 100 µM | UACC-257 > 100 µM | UO-31 > 100 µM | HCC 2998 75.3 µM

O=C1O/C(=C(/Cl)c2cccc3ccccc23)c2ccccc21
inactive: OVCAR-5 > 100 µM | DU-145 > 100 µM | SNB-19 > 100 µM | NCI-H23 > 100 µM | PC-3 > 100 µM | A549 > 100 µM | RXF 393 > 100 µM | SF-295 47 µM | OVCAR-4 > 100 µM | EKVX > 100 µM | MOLT-4 > 100 µM | NCI-H522 52.1 µM | UACC-257 > 100 µM | UO-31 > 100 µM | Hs-578T 32.4 µM | HCC 2998 > 100 µM | HCT-116 > 100 µM

N#CC(O)CCOCc1ccccc1 (configuration not stated)
inactive: OVCAR-5 > 100 µM | DU-145 > 100 µM | SNB-19 > 100 µM | NCI-H23 > 100 µM | PC-3 > 100 µM | A549 > 100 µM | SF-295 > 100 µM | OVCAR-4 > 100 µM | MDA-MB-231 > 100 µM | EKVX > 100 µM | MOLT-4 3.39 µM | T47D > 100 µM | SK-MEL-2 > 100 µM | NCI-H522 20.5 µM | UACC-257 > 100 µM | UO-31 78.7 µM | HCT-116 66.5 µM

CO[C@H](C(=O)O[C@H]1C(=O)N2CCC3CCC1C32C)c1ccccc1 (some centres not stated)
inactive: OVCAR-5 > 100 µM | SNB-19 > 100 µM | NCI-H23 > 100 µM | A549 > 100 µM | RXF 393 > 100 µM | SF-295 > 100 µM | OVCAR-4 > 100 µM | EKVX > 100 µM | MOLT-4 > 100 µM | SK-MEL-2 > 100 µM | NCI-H522 > 100 µM | UACC-257 > 100 µM | UO-31 > 100 µM | HCC 2998 > 100 µM | HCT-116 > 100 µM

C=C(Cl)C(=C)CCC(Cl)C(C)C (configuration not stated)
inactive: OVCAR-5 > 100 µM | DU-145 > 100 µM | SNB-19 > 100 µM | NCI-H23 > 100 µM | PC-3 > 100 µM | A549 > 100 µM | RXF 393 > 100 µM | SF-295 > 100 µM | OVCAR-4 > 100 µM | MDA-MB-231 > 100 µM | EKVX > 100 µM | MOLT-4 > 100 µM | SK-MEL-2 > 100 µM | NCI-H522 > 100 µM | UACC-257 > 100 µM | UO-31 > 100 µM | Hs-578T > 100 µM | HCC 2998 > 100 µM | HCT-116 > 100 µM

Nc1c(C(=O)c2ccc(Cl)cc2)[nH]c(Nc2ccc(Cl)cc2)c1C(=S)Nc1ccccc1
inactive: OVCAR-5 11.8 µM | DU-145 5.41 µM | SNB-19 4.36 µM | NCI-H23 3.3 µM | PC-3 10.6 µM | A549 3.21 µM | RXF 393 2.7 µM | SF-295 2.38 µM | OVCAR-4 2.08 µM | MDA-MB-231 4.55 µM | EKVX 4.9 µM | MOLT-4 9.44 µM | T47D 4.11 µM | SK-MEL-2 11.7 µM | NCI-H522 4.83 µM | UACC-257 11.2 µM | UO-31 3.73 µM | HCC 2998 2.74 µM | HCT-116 3.7 µM

COc1cc2cnc3c4cc(OCc5ccccc5)ccc4ccc3c2cc1OC
inactive: OVCAR-5 > 100 µM | SNB-19 34.8 µM | NCI-H23 25.2 µM | A549 25.5 µM | RXF 393 12 µM | SF-295 15.6 µM | OVCAR-4 6.92 µM | EKVX 58.3 µM | MOLT-4 5.06 µM | SK-MEL-2 18.8 µM | NCI-H522 17.3 µM | UACC-257 26.7 µM | UO-31 27.2 µM | HCC 2998 31.8 µM | HCT-116 45.8 µM

CC(C)CC(NC(=O)C(CCI)Cc1ccccc1)C(=O)Nc1ccccc1 (configuration not stated)
inactive: OVCAR-5 > 100 µM | DU-145 > 100 µM | SNB-19 98.2 µM | NCI-H23 49 µM | PC-3 51.1 µM | A549 80.9 µM | RXF 393 > 100 µM | SF-295 > 100 µM | OVCAR-4 > 100 µM | MDA-MB-231 > 100 µM | EKVX 42 µM | MOLT-4 26.7 µM | SK-MEL-2 > 100 µM | NCI-H522 27.7 µM | UACC-257 > 100 µM | UO-31 22.1 µM | HCC 2998 > 100 µM | HCT-116 43.4 µM
